Laboratory results: patent US10703746B2, “Mutant IDH1 inhibitors useful for treating cancer” (THE UNITED STATES OF AMERICA, AS REPRESENTED BY THE …, priority 2014, dated 2020)

How the values were obtained:
IDH1 R132H = IDH1 R132H (Homo sapiens, UniProt O75874, R132H); experiment: IDH1 R132H enzymatic assay (NADPH depletion coupled to diaphorase/resazurin); type: biochemical
IDH1 R132C = IDH1 R132C (Homo sapiens, UniProt O75874, R132C); experiment: IDH1 R132C enzymatic assay (NADPH depletion coupled to diaphorase/resazurin); type: biochemical
Summary of the method: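 NADPH depletion, read via diaphorase/resazurin coupling, after adding substrate at 0.6 mM α-KG and 0.012 mM NADPH. Beforehand, 0.00032 mg/mL enzyme sat with compound 30 min at room temperature in pH 6.5 potassium phosphate buffer with MgCl2, glycerol and BSA.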

[1] = IDH1 R132H enzymatic inhibition, IC50 class
[2] = IDH1 R132C enzymatic inhibition, IC50 class
[3] = enzymatic inhibition, IDH1 R132H
[4] = enzymatic inhibition, IDH1 R132C

IDH1 R132H, sequence (O75874 whole entry R132H): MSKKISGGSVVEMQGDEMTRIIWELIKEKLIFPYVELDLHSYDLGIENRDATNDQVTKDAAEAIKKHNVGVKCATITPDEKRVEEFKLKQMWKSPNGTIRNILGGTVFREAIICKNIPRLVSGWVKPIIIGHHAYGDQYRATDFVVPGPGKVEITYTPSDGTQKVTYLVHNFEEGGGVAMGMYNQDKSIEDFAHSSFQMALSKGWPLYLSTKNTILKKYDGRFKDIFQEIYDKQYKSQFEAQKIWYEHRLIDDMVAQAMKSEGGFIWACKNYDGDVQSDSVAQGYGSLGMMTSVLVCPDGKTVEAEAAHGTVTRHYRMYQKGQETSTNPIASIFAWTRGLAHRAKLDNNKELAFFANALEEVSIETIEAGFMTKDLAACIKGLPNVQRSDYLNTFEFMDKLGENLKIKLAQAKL
IDH1 R132C, sequence (O75874 whole entry R132C): as the sequence (O75874 whole entry R132H) above, with H132C counted along it

Row | SMILES | IC50 (IDH1 R132H; [1]) | IC50 (IDH1 R132C; [2]) | IC50 (IDH1 R132H; [3]) | IC50 (IDH1 R132C; [4])
1 | CCc1cccc(CC)c1-n1c(C)c(C(=O)Nc2ccccc2)cc(-c2nc(-c3ccc(Cl)cc3)cs2)c1=O [Compound 180] | > 20000 nM | > 20000 nM |  | 
2 | CCc1cccc(CC)c1-n1c(C(C)C)c(C(=O)N2CCN[C@@H](CO)C2)cc(-c2nc(-c3ccc(Cl)cc3)cs2)c1=O [Compound 229] | 300 to 1000 nM | < 300 nM |  | 
3 | CCc1cccc(CC)c1-n1c(C=C(C)C)c(C(=O)N2CCC(NC)CC2)cc(-c2nc(-c3ccc(Cl)cc3)cs2)c1=O [Compound 623] | < 300 nM | < 300 nM |  | 
4 | CCOc1ncc(Cl)cc1-n1c(C=C(C)C)c(C(=O)N2CCNCC2)cc(-c2nc(-c3ccc(C(F)F)nc3)cs2)c1=O [Compound 580] |  |  | < 300 nM | 300 to 1000 nM
5 | CCOc1ncc(F)cc1-n1c(C=C(C)C)c(C(=O)N2CCNCC2)cc(-c2nc(-c3ccc(Cl)cc3)cs2)c1=O [Compound 488] |  |  | < 300 nM | < 300 nM
6 | CCc1cccc(CC)c1-n1c(CC(C)C)c(C(=O)N[C@H](CO)c2ccccc2)cc(-c2nc(-c3ccc(Cl)cc3)cs2)c1=O [Compound 10] | 300 to 1000 nM | < 300 nM |  | 
7 | CCc1cccc(CC)c1-n1c(C=C(C)C)c(C(=O)N2CCNC(=O)CC2)cc(-c2nc(-c3ccc(Cl)cc3)cs2)c1=O [Compound 537] |  |  | < 300 nM | < 300 nM
8 | CCc1cccc(CC)c1-n1c(C)c(C(=O)N2CCN[C@@H](C(=O)OC)C2)cc(-c2nc(-c3ccc(Cl)cc3)cs2)c1=O [Compound 83] | 1000 to 5000 nM | 300 to 1000 nM |  | 
9 | CCc1cccc(CC)c1-n1c(CC(C)C)c(C(=O)NC2CCNCC2)cc(-c2nc(-c3ccc(Cl)cc3)cs2)c1=O [Compound 263] | 300 to 1000 nM | < 300 nM |  | 
10 | CCOc1ncc(C)cc1-n1c(C=C(C)C)c(C(=O)N2CCNCC2)cc(-c2nc(-c3ccc(C(F)(F)F)nc3)cs2)c1=O [Compound 639] | < 300 nM | 300 to 1000 nM |  | 
11 | CCc1cccc(CC)c1-n1c(C=C(C)C)c(C(=O)N(C)C2CCNCC2)cc(-c2nc(-c3ccc(Cl)cc3)cs2)c1=O [Compound 523] |  |  | < 300 nM | < 300 nM
12 | CCc1cccc(CC)c1-n1c(CC2CCCCC2)c(C(=O)N2CCNCC2)cc(-c2nc(-c3ccc(Cl)cc3)cs2)c1=O [Compound 612] |  |  | < 300 nM | < 300 nM
13 | CCc1cccc(CC)c1-n1c(CC2CCNCC2)c(C(=O)N2CCNCC2)cc(-c2nc(-c3ccc(Cl)cc3)cs2)c1=O [Compound 615] |  |  | > 20000 nM | > 20000 nM
14 | COCc1ncc(Cl)cc1-n1c(C=C(C)C)c(C(=O)N2CCNCC2)cc(-c2nc(-c3ccc(C(F)(F)F)cc3)cs2)c1=O [Compound 586] |  |  | < 300 nM | < 300 nM
15 | CCc1cccc(CC)c1-n1c(-c2ccn(-c3ccccc3)n2)c(C(=O)N2CCNCC2)cc(-c2nc(-c3ccc(Cl)cc3)cs2)c1=O [Compound 317] | 5000 to 20000 nM | 1000 to 5000 nM |  | 
16 | CCOc1ccc(-n2ccc(-c3cc(C(=O)N4CCNCC4)c(CC(C)C)n(-c4c(CC)cccc4CC)c3=O)n2)cc1 [Compound 458] |  |  | < 300 nM | < 300 nM
17 | CCc1cccc(CC)c1-n1c(CO)c(C(=O)NC)cc(-c2nc(-c3ccc(Cl)cc3)cs2)c1=O [Compound 100] | 1000 to 5000 nM | 1000 to 5000 nM |  | 
18 | COc1ccc(F)cc1-n1c(C=C(C)C)c(C(=O)N2CCNCC2)cc(-c2ccn(-c3ccc(C(F)(F)F)cc3)n2)c1=O [Compound 532] |  |  | 300 to 1000 nM | 1000 to 5000 nM
19 | O=c1[nH]cccc1-c1nc(-c2ccc(Cl)cc2)cs1 [Compound 79, 3-(4-(4-chlorophenyl)thiazol-2-yl)pyridin-2(1H)-one] | > 20000 nM | > 20000 nM |  | 
20 | CCc1cccc(CC)c1-n1c(C=C(C)C)c(C(=O)N2CCNC(CO)C2)cc(-c2nc(-c3ccc(Cl)cc3)cs2)c1=O (centres unmarked) [Compound 478] |  |  | < 300 nM | < 300 nM

Results, then the molecule that gave them:

Row | IC50 (IDH1 R132H; [1]) | IC50 (IDH1 R132C; [2]) | IC50 (IDH1 R132H; [3]) | IC50 (IDH1 R132C; [4]) | SMILES
21 | 5000 to 20000 nM | 5000 to 20000 nM |  |  | CC1(C)CC(=O)c2cc(-c3nc(-c4ccc(Cl)cc4)cs3)c(=O)n(-c3ccccc3)c2C1 [Compound 150]
22 |  |  | < 300 nM | < 300 nM | CCc1cccc(CC)c1-n1c(CC2CCOC2)c(C(=O)N2CCNCC2)cc(-c2nc(-c3ccc(Cl)cc3)cs2)c1=O (centres unmarked) [Compound 611]
23 | 1000 to 5000 nM | 300 to 1000 nM |  |  | COc1ncccc1-n1c2c(cc(-c3nc(-c4ccc(Cl)cc4)cs3)c1=O)C(=O)CC(C)(C)C2 [Compound 661]
24 | > 20000 nM | 5000 to 20000 nM |  |  | COc1ccc(OC)c(-n2c3c(cc(-c4cn(-c5ccc(Cl)cc5)cn4)c2=O)C(=O)CC(C)(C)C3)c1 [Compound 65]
25 | < 300 nM | < 300 nM |  |  | COc1ncc(F)cc1-n1c(C=C(C)C)c(C(=O)N2CCNCC2)cc(-c2nc(-c3ccc(Cl)cc3)cs2)c1=O [Compound 361]
26 | < 300 nM | 300 to 1000 nM |  |  | CCc1cccc(CC)c1-n1c(C)c(C(=O)N2CCN[C@@H](C)C2)cc(-c2nc(-c3ccc(Cl)cc3)cs2)c1=O [Compound 38]
27 | 1000 to 5000 nM | 300 to 1000 nM |  |  | CC1(C)CC(=O)c2cc(-c3nc(-c4ccc(Cl)cc4)cs3)c(=O)n(-c3ccccc3N3CCOCC3)c2C1 [Compound 248]
28 | 5000 to 20000 nM | 5000 to 20000 nM |  |  | COc1ncc(C2=CCNCC2)cc1-n1c2c(cc(-c3nc(-c4ccc(Cl)cc4)cs3)c1=O)C(=O)CC(C)(C)C2 [Compound 351]
29 | 1000 to 5000 nM | 1000 to 5000 nM |  |  | COc1cc(N)ccc1-n1c2c(cc(-c3nc(-c4ccc(Cl)cc4)cs3)c1=O)C(=O)CC(C)(C)C2 [Compound 95]
30 | 1000 to 5000 nM | 1000 to 5000 nM |  |  | COc1ccc(F)cc1-n1c2c(cc(-c3nc(-c4ccc(Cl)cc4)cs3)c1=O)C(=O)CCC2 [Compound 318]
31 |  |  | 1000 to 5000 nM | 1000 to 5000 nM | COc1cccc(OC)c1-n1c2c(cc(-c3nc(-c4ccc(Cl)cc4)cs3)c1=O)C(=O)CCC2 [Compound 414]
32 | 300 to 1000 nM | 300 to 1000 nM |  |  | COC(=O)c1ccccc1-n1c2c(cc(-c3nc(-c4ccc(Cl)cc4)cs3)c1=O)C(=O)CC(C)(C)C2 [Compound 254]
33 |  |  | 300 to 1000 nM | 300 to 1000 nM | COc1ccc(C#N)cc1-n1c(C=C(C)C)c(C(=O)N2CCNCC2)cc(-c2nc(-c3ccc(Cl)cc3)cs2)c1=O [Compound 603]
34 | 1000 to 5000 nM | 1000 to 5000 nM |  |  | CCc1cccc(CC)c1-n1c(C)c(C(=O)N2CCCC2C(=O)O)cc(-c2nc(-c3ccc(Cl)cc3)cs2)c1=O (centres unmarked) [Compound 258]
35 | 5000 to 20000 nM | 5000 to 20000 nM |  |  | COc1ccc(OC)c(-n2c3c(cc(-n4cnc(-c5ccccc5)c4)c2=O)C(=O)CC(C)(C)C3)c1 [Compound 154]
36 | > 20000 nM | 1000 to 5000 nM |  |  | COc1ccc(-n2c3c(cc(-c4nc(-c5ccc(Cl)cc5)cs4)c2=O)C(=O)CC(C)(C)C3)c(Cl)c1 [Compound 663]
37 |  |  | > 20000 nM | > 20000 nM | COc1ccc(-n2c3c(cc(-c4nc(-c5ccc(Cl)cc5)cs4)c2=O)C(=O)CC(C)(C)C3)c(OC)c1 [Compound 597]
38 |  |  | < 300 nM | < 300 nM | CCc1cccc(CC)c1-n1c(CC2CCC2)c(C(=O)N2CCNCC2)cc(-c2nc(-c3ccc(Cl)cc3)cs2)c1=O [Compound 433]
39 | < 300 nM | 300 to 1000 nM |  |  | COc1ccccc1-n1c(C=C(C)C)c(C(=O)N2CCNCC2)cc(-c2nc(-c3ccc(Cl)cc3)cs2)c1=O [Compound 644]
40 | < 300 nM | < 300 nM |  |  | CC(C)=Cc1c(C(=O)N2CCNCC2)cc(-c2nc(-c3ccc(Cl)cc3)cs2)c(=O)n1-c1cc(C)ccc1Cl [Compound 357]
